Assay: Hydrogen peroxide (H2O2) inhibition assay (fluorescence, DCF/horseradish peroxidase)
Format: biochemical
Conditions: for IC50: HCl salt tested where HCl salt MW is given; for Fe-ASC % (cf. 0.4 uM Fe/Asc; cf. CQ, CQ = 100%) / Cu % ASC (cf. CQ = 100%) / Zn % ASC (cf. CQ = 100%): ascorbic acid as reducing substrate; for Fe-ASC % (cf. 0.4 uM Fe/Asc; cf. CQ, CQ = 100%) / Fe-DA % (cf. 0.4 uM Fe/DA; cf. CQ, CQ = 100%): test compound 0.4 μM, lower values = greater inhibition of H2O2; for Fe-DA % (cf. 0.4 uM Fe/DA; cf. CQ, CQ = 100%): dopamine as reducing substrate
Experimental: Assay 1. Hydrogen Peroxide Assay
H2O2 is a strong oxidizer and a highly reactive oxygen species that is known to be toxic to surrounding proteins and organelles, inhibiting their function. […] […] H2O2 generated by the system is assessed by measuring the specific fluorescence profile at the excitation and emission wavelengths of 485 and 530 nm respectively, in the presence of test compound. Test compounds were dissolved in DMSO and tested at concentrations of 0.4 μM. Test compounds are ranked according to their capacity to inhibit H2O2 generated by the system where lower values reflect greater ability to inhibit H2O2 production.

Row | Compound | IC50 [nM] | Fe-ASC % (cf. 0.4 uM Fe/Asc; cf. CQ, CQ = 100%) [% ASC] | Fe-DA % (cf. 0.4 uM Fe/DA; cf. CQ, CQ = 100%) [%] | Cu % ASC (cf. CQ = 100%) | Zn % ASC (cf. CQ = 100%)
1 | CNC(=O)c1cnc2c(O)cccn2c1=O [Compound 1445] | < 100 | 176 | 45 |  | 
2 | CCCCNCc1cc(=O)n2cccc(O)c2n1 [Compound 1405] | 290 | 35 |  |  | 
3 | CN(C)Cc1cnc2c(O)cccn2c1=O [Compound 1424, 3-((Dimethylamino)methyl)-9-hydroxy-4H-pyrido[1,2-a]pyrimidin-4-one hydrogen chloride] | 800 | 48 |  |  | 
4 | Cc1ccc(O)c2nc(CNCc3ccc(Cl)cc3)cc(=O)n12 [Compound 1469] | 500 | 63 | 43 |  | 
5 | O=C(NCCc1ccccn1)c1cnc2c(O)cccn2c1=O [Compound 1427] | 180 |  | 74 | Cu 212% ASC | Zn 61% ASC
6 | Cc1ccc(O)c2nc(CN(C)Cc3cccc(F)c3)cc(=O)n12 [Compound 1525] | 320 | 105 | 46 |  | 
7 | CCCCCCCCNC(=O)c1cnc2c(O)cccn2c1=O [Compound 1394] | 720 | 96 |  |  | 
8 | C#CCN(C)Cc1cc(=O)n2c(C)ccc(O)c2n1 [Compound 1491] | 300 | >222 | 48 |  | 
9 | O=C(NC1CCCC1)c1cnc2c(O)cccn2c1=O [Compound 1436] | 210 | 190 | 101 |  | 
10 | O=c1cc(CNCCN2CCOCC2)nc2c(O)cccn12 [Compound 1418] | 240 | 30 |  |  | 
11 | CN(Cc1ccc(F)cc1)Cc1cc(=O)n2cccc(O)c2n1 [Compound 1479] | 460 | 147 | 42 |  | 
12 | O=C(NCc1ccc(Cl)cc1Cl)c1cnc2c(O)cccn2c1=O [Compound 1452] | 540 | 60 | 49 |  | 
13 | CCCCCCCNC(=O)C1=CNC2C(O)=CC=CN2C1=O (centres unmarked) [Compound 1462] | 460 | 72 | 54 |  | 
14 | O=c1cc(CNCC2CCCCC2)nc2c(O)cccn12 [Compound 1458] | 580 | 137 | 43 |  | 
15 | O=c1cc(CNCc2ccc(Cl)cc2)nc2c(O)cccn12 [Compound 1406] | 1140 |  |  |  | 
16 | CC(C)CNCc1cc(=O)n2cccc(O)c2n1 [Compound 1408, 9-Hydroxy-2-((isobutylamino)methyl)-4H-pyrido[1,2-a]pyrimidin-4-one hydrogen chloride] | 430 |  |  |  | 
17 | CCCc1cnc2c(O)c(CN(C)C)ccn2c1=O [Compound 1631] |  |  |  | Cu 248% ASC | Zn 101% ASC
18 | CCCNCc1cc(=O)n2c(C)ccc(O)c2n1 [Compound 1470] | 350 | >234 | 38 |  | 
19 | Cc1ccc(O)c2nc(CN(C)C3CCCCC3)cc(=O)n12 [Compound 1523] | 700 | 135 | 49 |  | 
20 | O=C(NC1CCCCC1)c1cnc2c(O)cccn2c1=O [Compound 1460, N-cyclohexyl-9-hydroxy-4-oxo-4H-pyrido[1,2-a]pyrimidine-3-carboxamide] | 440 | 92 | 29 |  | 
21 | CCCCCCNC(=O)c1cnc2c(O)cccn2c1=O [Compound 1440] | 690 | 66 | 48 |  | 
22 | Cc1ccc(O)c2nc(CNC3CCCCC3)cc(=O)n12 [Compound 1468] | 210 | 169 | 39 |  | 

Row | Compound | IC50 [nM] | Fe-ASC % (cf. 0.4 uM Fe/Asc; cf. CQ, CQ = 100%) [% ASC] | Fe-DA % (cf. 0.4 uM Fe/DA; cf. CQ, CQ = 100%) [%] | Cu % ASC (cf. CQ = 100%) | Zn % ASC (cf. CQ = 100%)
23 | CN(CCc1ccccn1)Cc1cc(=O)n2cccc(O)c2n1 [Compound 1476] | 230 | 122 | 46 |  | 
24 | O=c1cc(CNc2cccnc2)nc2c(O)cccn12 [Compound 1448] | 460 | 137 | 66 |  | 
25 | Cc1ccc(O)c2nc(CN(C)Cc3cccc(Cl)c3)cc(=O)n12 [Compound 1519] | 350 | 100 | 47 |  | 
26 | CC1CCN(Cc2cc(=O)n3cccc(O)c3n2)CC1 [Compound 1506] | > 10000 | 161 | 48 |  | 
27 | O=c1cc(CNC2CCCCC2)nc2c(O)cccn12 [Compound 1456] | 390 | 122 | 58 |  | 
28 | Cc1ccc(O)c2nc(CNCC3CCCCC3)cc(=O)n12 [Compound 1503] | 230 | 204 | 42 |  | 
29 | O=c1cc(CNCCCN2CCOCC2)nc2c(O)cccn12 [Compound 1412] | 130 | 29 |  |  | 
30 | CCCc1cnc2c(O)c(-c3cccnc3)c(Cl)cn2c1=O [Compound 1629, 7-Chloro-9-hydroxy-3-propyl-8-(pyridin-3-yl)-4H-pyrido[1,2-a]pyrimidine-4-one] |  |  |  | Cu 204% ASC | Zn 130% ASC
31 | CC(C)c1cnc2c(O)c(CN(C)C)ccn2c1=O [Compound 1632] |  |  |  | Cu 228% ASC | Zn 106% ASC
32 | COc1ccc(CNCc2cc(=O)n3cccc(O)c3n2)cc1 [Compound 1443] | 250 | 116 | 52 |  | 
33 | O=c1cc(CNCc2ccc(OC(F)(F)F)cc2)nc2c(O)cccn12 [Compound 1464] | 470 | 135 | 47 |  | 
34 | O=C(NCC1CCCCC1)c1cnc2c(O)cccn2c1=O [Compound 1461] | 490 | 59 | 57 |  | 
35 | O=c1cc(CNCC2CC2)nc2c(O)cccn12 [Compound 1411] | 330 | 36 |  |  | 
36 | O=c1cc(CNCc2ccc(F)c(F)c2)nc2c(O)cccn12 [Compound 1459] | 330 | 110 | 48 |  | 
37 | CCCCCCNCc1cc(=O)n2cccc(O)c2n1 [Compound 1438] | 240 | 143 | 47 |  | 
38 | O=C(NCc1ccc(F)cc1F)c1cnc2c(O)cccn2c1=O [Compound 1437] | 470 | 71 | 71 |  | 
39 | Cc1ccc(O)c2nc(CN3CCCCC3)cc(=O)n12 [Compound 1471] | 300 | 125 | 62 |  | 
40 | Cc1ccc(O)c2nc(CN3CCN(Cc4ccccc4F)CC3)cc(=O)n12 [Compound 1522-] | 440 | 156 | 47 |  | 
41 | CCCCCCCCNCc1cc(=O)n2cccc(O)c2n1 [Compound 1410] | 430 | 62 |  |  | 
42 | Cc1ccc(O)c2nc(CN(C)C)cc(=O)n12 [Compound 1466] | 340 | >234 | 47 |  | 
43 | O=c1cc(CNc2ccc(F)cc2)nc2c(O)cccn12 [Compound 1451] | 580 | 136 | 67 |  | 
